Patent US20240158446A1, “CYCLIC COMPOUND HAVING SELECTIVE INHIBITORY ACTION ON KRAS OVER HRAS AND NRAS” (CHUGAI SEIYAKU KABUSHIKI KAISHA, priority 2021, published 2024)

Assays:
[1] = biological target: GDP-bound KRAS wild-type protein (Homo sapiens, UniProt P01116); assay: Binding to KRAS by surface plasmon resonance (SPR), Single Cycle Kinetics; conditions: SPR Single Cycle Kinetics, GDP-bound KRAS wild-type protein, 1:1 binding model; read-out: KRAS KD
[2] = biological target: GDP-bound NRAS wild-type protein (Homo sapiens, UniProt P01111); assay: Binding to NRAS by surface plasmon resonance (SPR), Single Cycle Kinetics; conditions: SPR KD ratio NRAS/KRAS, class symbols
GDP-bound NRAS wild-type protein, sequence (P01111 whole entry): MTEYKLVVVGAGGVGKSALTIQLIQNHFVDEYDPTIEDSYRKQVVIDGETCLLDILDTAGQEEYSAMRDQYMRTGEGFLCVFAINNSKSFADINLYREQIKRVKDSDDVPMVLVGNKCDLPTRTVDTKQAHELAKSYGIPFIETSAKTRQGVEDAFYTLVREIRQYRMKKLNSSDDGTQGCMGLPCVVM

[3] = biological target: GDP-bound HRAS wild-type protein (Homo sapiens, UniProt P01112); assay: Binding to HRAS by surface plasmon resonance (SPR), Single Cycle Kinetics; conditions: SPR KD ratio HRAS/KRAS, class symbols
GDP-bound HRAS wild-type protein, sequence (P01112 whole entry): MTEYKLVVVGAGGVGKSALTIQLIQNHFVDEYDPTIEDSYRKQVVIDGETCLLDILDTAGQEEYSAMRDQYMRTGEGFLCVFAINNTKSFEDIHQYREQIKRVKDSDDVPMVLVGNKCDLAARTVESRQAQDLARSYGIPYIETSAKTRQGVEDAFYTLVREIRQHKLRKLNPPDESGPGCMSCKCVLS

[4] = test system: human lung cancer strain NCI-H441;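 note: cell proliferation inhibition after four days measured by CellTiter-Glo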

GDP-bound KRAS wild-type protein, sequence (P01116 whole entry): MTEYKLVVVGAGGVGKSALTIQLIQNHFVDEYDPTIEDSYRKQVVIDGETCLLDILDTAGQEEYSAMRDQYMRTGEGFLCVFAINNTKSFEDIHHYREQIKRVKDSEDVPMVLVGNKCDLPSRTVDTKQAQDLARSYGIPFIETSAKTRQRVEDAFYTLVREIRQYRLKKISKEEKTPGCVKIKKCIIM

Compound	Kd [1] [nM]	NRAS/KRAS (ratio of KD value with respect to GDP-bound NRAS wild-type protein to KD value with respect to KRAS) [2]	HRAS/KRAS (ratio of KD value with respect to GDP-bound HRAS wild-type protein to KD value with respect to KRAS) [3]	IC50 [4] [nM]
CCC[C@H]1C(=O)N[C@@H]([C@@H](C)CC)C(=O)N(C2CC2)CC(=O)N(C)[C@H]2C/C=C\CCN(C2=O)[C@@H](Cc2ccc(C)cc2)C(=O)N(C)CC(=O)N[C@@H](CCc2cc(F)c(C(F)(F)F)c(F)c2)C(=O)N2C[C@H](OC(C)C)C[C@H]2C(=O)NC2(CC(C)(C)C2)C(=O)N(C)[C@@H](C2CCCC2)C(=O)N(C)[C@H](C(=O)N(C)C)CC(=O)N1C [PP2570]	0.39	A (a compound having 10 or more and less than 20 is denoted as A)	A (a compound having 10 or more and less than 20 is denoted as A)	8.9
CCC[C@H]1C(=O)N[C@@H]([C@@H](C)CC)C(=O)N(C2CC2)CC(=O)N(C)[C@H]2C/C=C\CCN(C2=O)[C@@H](Cc2ccc(C)cc2)C(=O)N(C)CC(=O)N[C@@H](CCc2ccc(Cl)c(Cl)c2)C(=O)N2C[C@H](OC(C)C)C[C@H]2C(=O)NC2(CC(C)(C)C2)C(=O)N(C)[C@@H](C2CCCC2)C(=O)N(C)[C@H](C(=O)N(C)C)CC(=O)N1C [PP2571]	1	A (a compound having 10 or more and less than 20 is denoted as A)	A (a compound having 10 or more and less than 20 is denoted as A)	76.1
CCC(CC)[C@H]1C(=O)N(C)[C@H](C(=O)N(C)C)CC(=O)N(C)[C@@H](COC)C(=O)N[C@@H]([C@@H](C)CC)C(=O)N(C2CC2)CC(=O)N(C)[C@H]2C/C=C\CCN(C2=O)[C@@H](Cc2ccc(C)cc2)C(=O)N(C)CC(=O)N[C@@H](CCc2cc(F)c(C(F)(F)F)c(F)c2)C(=O)N2C[C@H](OC(C)C)C[C@H]2C(=O)NC2(CC(C)(C)C2)C(=O)N1C [PP2572]	1.2	A (a compound having 10 or more and less than 20 is denoted as A)	A (a compound having 10 or more and less than 20 is denoted as A)	82.7
CCO[C@@H]1C[C@H]2C(=O)NC3(CC(C)(C)C3)C(=O)N(C)[C@@H](C(CC)CC)C(=O)N(C)[C@H](C(=O)N3CCCCC3)CC(=O)N(C)[C@@H](COC)C(=O)N[C@@H]([C@@H](C)CC)C(=O)N(C)CC(=O)N(C)[C@H]3C/C=C\CCN(C3=O)[C@@H](Cc3ccc(C(F)(F)F)cc3)C(=O)N(C)CC(=O)N[C@@H](CCc3cc(F)c(C(F)(F)F)c(F)c3)C(=O)N2C1 [PP2606]	0.81	AA (a compound having 20 or more is denoted as AA)	AA (a compound having 20 or more is denoted as AA)	68.7
CCC(CC)[C@H]1C(=O)N(C)[C@H](C(=O)N2CCCCC2)CC(=O)N(C)[C@@H](COC)C(=O)N[C@@H]([C@@H](C)CC)C(=O)N(C)CC(=O)N(C)[C@H]2C/C=C\CCN(C2=O)[C@@H](Cc2ccc(C(F)(F)F)cc2)C(=O)N(C)CC(=O)N[C@@H](CCc2cc(F)c(C(F)(F)F)c(F)c2)C(=O)N2C[C@H](OC(C)C)C[C@H]2C(=O)NC2(CC(C)(C)C2)C(=O)N1C [PP2608]	1.4	AA (a compound having 20 or more is denoted as AA)	A (a compound having 10 or more and less than 20 is denoted as A)	53
CCO[C@@H]1C[C@H]2C(=O)NC3(CC(C)(C)C3)C(=O)N(C)[C@@H](C(CC)CC)C(=O)N(C)[C@H](C(=O)N3CCCCC3)CC(=O)N(C)[C@@H](COC)C(=O)N[C@@H]([C@@H](C)CC)C(=O)N(C)CC(=O)N(C)[C@H]3C/C=C\CCN(C3=O)[C@@H](Cc3ccc(C(F)(F)F)cc3)C(=O)N(C)CC(=O)N[C@@H](CCc3ccc(Cl)c(Cl)c3)C(=O)N2C1 [PP2610]	1.3	AA (a compound having 20 or more is denoted as AA)	A (a compound having 10 or more and less than 20 is denoted as A)	126
CCC(CC)[C@H]1C(=O)N(C)[C@H](C(=O)N2CCCCC2)CC(=O)N(C)[C@@H](COC)C(=O)N[C@@H]([C@@H](C)CC)C(=O)N(C)CC(=O)N(C)[C@H]2C/C=C\CCN(C2=O)[C@@H](Cc2ccc(C(F)(F)F)cc2)C(=O)N(C)CC(=O)N[C@@H](CCc2ccc(Cl)c(Cl)c2)C(=O)N2C[C@H](OC(C)C)C[C@H]2C(=O)NC2(CC(C)(C)C2)C(=O)N1C [PP2612]	2.4	AA (a compound having 20 or more is denoted as AA)	A (a compound having 10 or more and less than 20 is denoted as A)	199
CCC[C@H]1C(=O)N[C@@H]([C@@H](C)CC)C(=O)N(C2CC2)CC(=O)N(C)[C@H]2C/C=C\CCN(C2=O)[C@@H](Cc2ccc(C)cc2)C(=O)N(C)CC(=O)N[C@@H](CCc2cc(F)c(C(F)(F)F)c(F)c2)C(=O)N2C[C@H](OC3CCC3)C[C@H]2C(=O)NC2(CC(C)(C)C2)C(=O)N(C)[C@@H](C2CCCC2)C(=O)N(C)[C@H](C(=O)N(C)C)CC(=O)N1C [PP2614]	0.27	A (a compound having 10 or more and less than 20 is denoted as A)	A (a compound having 10 or more and less than 20 is denoted as A)	12.1
CCC(CC)[C@H]1C(=O)N(C)[C@H](C(=O)N(C)C)CC(=O)N(C)[C@@H](COC)C(=O)N[C@@H]([C@@H](C)CC)C(=O)N(C2CC2)CC(=O)N(C)[C@H]2C/C=C\CCN(C2=O)[C@@H](CC2CCC(F)(F)CC2)C(=O)N(C)CC(=O)N[C@@H](CCc2cc(F)c(C(F)(F)F)c(F)c2)C(=O)N2C[C@H](OC3CCC3)C[C@H]2C(=O)NC2(CC(C)(C)C2)C(=O)N1C [PP2615]	2	A (a compound having 10 or more and less than 20 is denoted as A)	A (a compound having 10 or more and less than 20 is denoted as A)	88.7
CCC[C@H]1C(=O)N[C@@H]([C@@H](C)CC)C(=O)N(C2CC2)CC(=O)N(C)[C@H]2C/C=C\CCN(C2=O)[C@@H](Cc2ccc(C)cc2)C(=O)N(C)CC(=O)N[C@@H](CCc2ccc(Cl)c(Cl)c2)C(=O)N2C[C@H](OC3CCC3)C[C@H]2C(=O)NC2(CC(C)(C)C2)C(=O)N(C)[C@@H](C2CCCC2)C(=O)N(C)[C@H](C(=O)N(C)C)CC(=O)N1C [PP2616]	0.8	A (a compound having 10 or more and less than 20 is denoted as A)	A (a compound having 10 or more and less than 20 is denoted as A)	66.4
CC[C@H](C)[C@@H]1NC(=O)[C@H](COC)N(C)C(=O)C[C@@H](C(=O)N(C)C)N(C)C(=O)[C@H](C2CCCC2)N(C)C(=O)C2(CC(C)(C)C2)NC(=O)[C@@H]2C[C@@H](OC3CCC3)CN2C(=O)[C@H](CCc2cc(F)c(C(F)(F)F)c(F)c2)NC(=O)CN(C)C(=O)[C@H](CC2CCCCC2)N2CC/C=C\C[C@@H](C2=O)N(C)C(=O)CN(C2CC2)C1=O [PP2618]	1.4	A (a compound having 10 or more and less than 20 is denoted as A)	A (a compound having 10 or more and less than 20 is denoted as A)	69.5
CCC(CC)[C@H]1C(=O)N(C)[C@H](C(=O)N(C)C)CC(=O)N(C)[C@@H](COC)C(=O)N[C@@H]([C@@H](C)CC)C(=O)N(C2CC2)CC(=O)N(C)[C@H]2C/C=C\CCN(C2=O)[C@@H](Cc2ccc(C)cc2)C(=O)N(C)CC(=O)N[C@@H](CCc2cc(F)c(C(F)(F)F)c(F)c2)C(=O)N2C[C@H](OC3CCCC3)C[C@H]2C(=O)NC2(CC(C)(C)C2)C(=O)N1C [PP2619]	1.2	AA (a compound having 20 or more is denoted as AA)	A (a compound having 10 or more and less than 20 is denoted as A)	132
CC[C@H](C)[C@@H]1NC(=O)[C@H](COC)N(C)C(=O)C[C@@H](C(=O)N(C)C)N(C)C(=O)[C@H](C2CCCC2)N(C)C(=O)C2(CC(C)(C)C2)NC(=O)[C@@H]2C[C@@H](OC3CCC3)CN2C(=O)[C@H](CCc2cc(F)c(C(F)(F)F)c(F)c2)NC(=O)CN(C)C(=O)[C@H](CC2CCC(F)(F)CC2)N2CC/C=C\C[C@@H](C2=O)N(C)C(=O)CN(C2CC2)C1=O [PP2622]	0.53	A (a compound having 10 or more and less than 20 is denoted as A)	B (a compound having 3 or more and less than 10 is denoted as B)	43.8
CC[C@H](C)[C@@H]1NC(=O)[C@H](COC)N(C)C(=O)C[C@@H](C(=O)N(C)C)N(C)C(=O)[C@H](C2CCCC2)N(C)C(=O)C2(CC(C)(C)C2)NC(=O)[C@@H]2C[C@@H](OC3CCC3)CN2C(=O)[C@H](CCc2ccc(Cl)c(Cl)c2)NC(=O)CN(C)C(=O)[C@H](CC2CCC(F)(F)CC2)N2CC/C=C\C[C@@H](C2=O)N(C)C(=O)CN(C2CC2)C1=O [PP2624]	1.3	A (a compound having 10 or more and less than 20 is denoted as A)	A (a compound having 10 or more and less than 20 is denoted as A)	174
